According to PMC6394493 (Cancer Chemotherapy and Pharmacology, 2018):

Assay: Safety assessment: adverse events
Assay type: in vivo, Japanese patients
Text: Safety assessments consisted of monitoring and recording of all AEs, including laboratory abnormalities and vital signs. DLTs were defined as an AE or a laboratory abnormality assessed as related to the study drug and occurring within the first 28 days of treatment (Cycle 1), as defined in Supplemental Table S1.

[1] = bid 400 mg N = 8, regardless of study drug relationship
[2] = qd 400 mg (n = 3), regardless of study drug relationship
[3] = qd 800 mg (n = 3), regardless of study drug relationship
[4] = qd 1000 mg (n = 8), regardless of study drug relationship

With `Cn1c(=O)n(-c2ccc(C(C)(C)C#N)cc2)c2c3cc(-c4cnc5ccccc5c4)ccc3ncc21` [BEZ235] the “study drug-related SAE” value (1000 mg qd) was “grade 2 colitis”, the “patients requiring dose reduction in Cycle 2” value (1200 mg qd) was “two out of six” and the “patients requiring dose interruption due to AEs” value (1400 mg qd) was “six”. The “patients requiring dose reduction in early cycles” value (1400 mg qd) was “three”, the “study drug-related SAE” value (1400 mg qd) was “grade 2 Pneumocystis jiroveci pneumonia” and the “AEs Total, All grades” value [1] was 8 (100.0) n (%). The “AEs Total, Grade ¾” value [1] was 7 (87.5) n (%), the “Alanine aminotransferase increased, All grades” value [1] was 4 (50.0) n (%) and the “Alanine aminotransferase increased, Grade ¾” value [1] was 0 n (%). For the same compound, the “Anxiety, All grades” value [1] was 2 (25.0) n (%), the “Anxiety, Grade ¾” value [1] was 0 n (%) and the “Aspartate aminotransferase increased, All grades” value [1] was 4 (50.0) n (%). For the same compound, the “Aspartate aminotransferase increased, Grade ¾” value [1] was 1 (12.5) n (%), the “Blood alkaline phosphatase increased, All grades” value [1] was 2 (25.0) n (%) and the “Blood alkaline phosphatase increased, Grade ¾” value [1] was 0 n (%). The “Blood creatinine increased, All grades” value [1] was 3 (37.5) n (%), the “Blood creatinine increased, Grade ¾” value [1] was 0 n (%) and the “Cancer pain, All grades” value [1] was 3 (37.5) n (%). The “Cancer pain, Grade ¾” value [1] was 2 (25.0) n (%), the “Cheilitis, All grades” value [1] was 3 (37.5) n (%) and the “Cheilitis, Grade ¾” value [1] was 0 n (%). For the same compound, the “Decreased appetite, All grades” value [1] was 7 (87.5) n (%), the “Decreased appetite, Grade ¾” value [1] was 1 (12.5) n (%) and the “Diarrhea, All grades” value [1] was 7 (87.5) n (%). For the same compound, the “Diarrhea, Grade ¾” value [1] was 1 (12.5) n (%), the “Dry skin, All grades” value [1] was 4 (50.0) n (%) and the “Dry skin, Grade ¾” value [1] was 0 n (%). For the same compound, the “Dysphagia, All grades” value [1] was 3 (37.5) n (%), the “Dysphagia, Grade ¾” value [1] was 0 n (%) and the “Fatigue, All grades” value [1] was 5 (62.5) n (%). For the same compound, the “Fatigue, Grade ¾” value [1] was 1 (12.5) n (%), the “Gamma-glutamyltransferase increased, All grades” value [1] was 2 (25.0) n (%) and the “Gamma-glutamyltransferase increased, Grade ¾” value [1] was 0 n (%). For the same compound, the “Haemoglobin decreased, All grades” value [1] was 4 (50.0) n (%), the “Haemoglobin decreased, Grade ¾” value [1] was 1 (12.5) n (%) and the “Hyperkalaemia, All grades” value [1] was 2 (25.0) n (%). For the same compound, the “Hyperkalaemia, Grade ¾” value [1] was 0 n (%), the “Hypoalbuminaemia, All grades” value [1] was 4 (50.0) n (%) and the “Hypoalbuminaemia, Grade ¾” value [1] was 1 (12.5) n (%). The “Hyponatraemia, All grades” value [1] was 2 (25.0) n (%), the “Hyponatraemia, Grade ¾” value [1] was 1 (12.5) n (%) and the “Insomnia, All grades” value [1] was 4 (50.0) n (%). For the same compound, the “Insomnia, Grade ¾” value [1] was 0 n (%), the “Lymphopenia, All grades” value [1] was 4 (50.0) n (%) and the “Lymphopenia, Grade ¾” value [1] was 2 (25.0) n (%). The “Malaise, All grades” value [1] was 2 (25.0) n (%), the “Malaise, Grade ¾” value [1] was 1 (12.5) n (%) and the “Nausea, All grades” value [1] was 7 (87.5) n (%). For the same compound, the “Nausea, Grade ¾” value [1] was 0 n (%), the “Pyrexia, All grades” value [1] was 2 (25.0) n (%) and the “Pyrexia, Grade ¾” value [1] was 0 n (%). For the same compound, the “Rash, All grades” value [1] was 4 (50.0) n (%), the “Rash, Grade ¾” value [1] was 0 n (%) and the “Stomatitis, All grades” value [1] was 5 (62.5) n (%). For the same compound, the “Stomatitis, Grade ¾” value [1] was 0 n (%), the “Thrombocytopenia, All grades” value [1] was 5 (62.5) n (%) and the “Thrombocytopenia, Grade ¾” value [1] was 2 (25.0) n (%). The “Urinary tract infection, All grades” value [1] was 2 (25.0) n (%), the “Urinary tract infection, Grade ¾” value [1] was 0 n (%) and the “Vomiting, All grades” value [1] was 4 (50.0) n (%). For the same compound, the “Vomiting, Grade ¾” value [1] was 0 n (%), the “study drug-related SAE” value (bid dosing group, one patient) was “grade 4 diarrhea” and the “patients with Grade 3 or 4 AEs” value (bid dosing, seven patients) was 87.5%. For the same compound, the “study drug discontinuation due to AEs” value (bid group, one patient) was 12.5%, the “grade 3 or 4 lymphopenia suspected to be study drug-related” value (bid group, two patients) was 25.0% and the “grade 3 or 4 thrombocytopenia suspected to be study drug-related” value (bid group, two patients) was 25.0%. The “deaths during the study period” value (including a 30-day follow-up, qd and bid) was “No patient died”, the “AEs Total, All grades” value [2] was 3 (100.0) n (%) and the “AEs Total, Grade ¾” value [2] was 2 (66.7) n (%). The “Alanine aminotransferase increased, All grades” value [2] was 2 (66.7) n (%), the “Alanine aminotransferase increased, Grade ¾” value [2] was 0 n (%) and the “Blood alkaline phosphatase increased, All grades” value [2] was 1 (33.3) n (%). The “Blood alkaline phosphatase increased, Grade ¾” value [2] was 0 n (%), the “Cancer pain, All grades” value [2] was 2 (66.7) n (%) and the “Cancer pain, Grade ¾” value [2] was 1 (33.3) n (%). For the same compound, the “Decreased appetite, All grades” value [2] was 2 (66.7) n (%), the “Decreased appetite, Grade ¾” value [2] was 0 n (%) and the “Diarrhea, All grades” value [2] was 2 (66.7) n (%). For the same compound, the “Diarrhea, Grade ¾” value [2] was 0 n (%), the “Dysgeusia, All grades” value [2] was 0 n (%) and the “Dysgeusia, Grade ¾” value [2] was 0 n (%). The “Fatigue, All grades” value [2] was 1 (33.3) n (%), the “Fatigue, Grade ¾” value [2] was 0 n (%) and the “Leukopenia, All grades” value [2] was 0 n (%). The “Leukopenia, Grade ¾” value [2] was 0 n (%), the “Lymphopenia, All grades” value [2] was 2 (66.7) n (%) and the “Lymphopenia, Grade ¾” value [2] was 2 (66.7) n (%). For the same compound, the “Nausea, All grades” value [2] was 3 (100.0) n (%), the “Nausea, Grade ¾” value [2] was 0 n (%) and the “Neutropenia, All grades” value [2] was 0 n (%). The “Neutropenia, Grade ¾” value [2] was 0 n (%), the “Pyrexia, All grades” value [2] was 1 (33.3) n (%) and the “Pyrexia, Grade ¾” value [2] was 0 n (%). For the same compound, the “Rash, All grades” value [2] was 1 (33.3) n (%), the “Rash, Grade ¾” value [2] was 0 n (%) and the “Stomatitis, All grades” value [2] was 2 (66.7) n (%). The “Stomatitis, Grade ¾” value [2] was 0 n (%), the “Thrombocytopenia, All grades” value [2] was 0 n (%) and the “Thrombocytopenia, Grade ¾” value [2] was 0 n (%). The “Vomiting, All grades” value [2] was 2 (66.7) n (%), the “Vomiting, Grade ¾” value [2] was 0 n (%) and the “AEs Total, All grades” value [3] was 3 (100.0) n (%). For the same compound, the “AEs Total, Grade ¾” value [3] was 1 (33.3) n (%), the “Alanine aminotransferase increased, All grades” value [3] was 0 n (%) and the “Alanine aminotransferase increased, Grade ¾” value [3] was 0 n (%). The “Blood alkaline phosphatase increased, All grades” value [3] was 0 n (%), the “Blood alkaline phosphatase increased, Grade ¾” value [3] was 0 n (%) and the “Cancer pain, All grades” value [3] was 2 (66.7) n (%). The “Cancer pain, Grade ¾” value [3] was 0 n (%), the “Decreased appetite, All grades” value [3] was 3 (100.0) n (%) and the “Decreased appetite, Grade ¾” value [3] was 0 n (%). The “Diarrhea, All grades” value [3] was 3 (100.0) n (%), the “Diarrhea, Grade ¾” value [3] was 0 n (%) and the “Dysgeusia, All grades” value [3] was 1 (33.3) n (%). The “Dysgeusia, Grade ¾” value [3] was 0 n (%), the “Fatigue, All grades” value [3] was 2 (66.7) n (%) and the “Fatigue, Grade ¾” value [3] was 0 n (%). The “Leukopenia, All grades” value [3] was 1 (33.3) n (%), the “Leukopenia, Grade ¾” value [3] was 0 n (%) and the “Lymphopenia, All grades” value [3] was 1 (33.3) n (%). The “Lymphopenia, Grade ¾” value [3] was 1 (33.3) n (%), the “Nausea, All grades” value [3] was 1 (33.3) n (%) and the “Nausea, Grade ¾” value [3] was 0 n (%). For the same compound, the “Neutropenia, All grades” value [3] was 1 (33.3) n (%), the “Neutropenia, Grade ¾” value [3] was 0 n (%) and the “Pyrexia, All grades” value [3] was 1 (33.3) n (%). For the same compound, the “Pyrexia, Grade ¾” value [3] was 0 n (%), the “Rash, All grades” value [3] was 0 n (%) and the “Rash, Grade ¾” value [3] was 0 n (%). The “Stomatitis, All grades” value [3] was 2 (66.7) n (%), the “Stomatitis, Grade ¾” value [3] was 0 n (%) and the “Thrombocytopenia, All grades” value [3] was 1 (33.3) n (%). The “Thrombocytopenia, Grade ¾” value [3] was 1 (33.3) n (%), the “Vomiting, All grades” value [3] was 1 (33.3) n (%) and the “Vomiting, Grade ¾” value [3] was 0 n (%). The “AEs Total, All grades” value [4] was 8 (100.0) n (%), the “AEs Total, Grade ¾” value [4] was 4 (50.0) n (%) and the “Alanine aminotransferase increased, All grades” value [4] was 0 n (%). For the same compound, the “Alanine aminotransferase increased, Grade ¾” value [4] was 0 n (%).
